Measurements from paper PMC6604316 (Virology Journal, 2019).
Read-outs that look alike come from different tables or passages of the source.

Key:
[1] = target: NA of A/Texas/12/2007 (H3N2 119E) (Influenza A virus (A/Texas/12/2007(H3N2)), UniProt D1FVK3); test: biochemical; assay type: biochemical
[2] = tested on: NA protein of LPAI H7N9 virus, 292 K; conditions: cited from earlier work

| Compound | IC50 [1] [nM] | fold increase in the IC50 [2] | IC50 ([1]; read-out: Mean IC50 (nM) ± SD) [nM] |
| --- | --- | --- | --- |
| CC(=O)N[C@H]1[C@H]([C@H](O)[C@H](O)CO)OC(C(=O)O)=C[C@@H]1N=C(N)N [Zanamivir, zanamivir] | 1.71 ± 0.63 | 67 fold | – |
| oseltamivir carboxylate | – | more than 1000 fold | 0.12 ± 0.01 |
